Test results as given in patent US9464093B2, “Substituted imidazo[4',5':4,5]cyclopenta[1,2-e]pyrrolo[1,2-a]pyrazines and oxazolo[4',5':4,5]cyclopenta[1,2-e]pyrrolo[1,2-a]pyrazines for treating brain cancer” (Mayo Foundation for Medical Education and Research, priority 2012, dated 2016).
Entries after “also recorded” stand apart in the source; their conditions may differ.

Tested on: Raji lymphoma cells
Assay: Ex vivo murine brain slice invasion assay
Assay type: cell-based
Conditions: cells pretreated with 100 nM for four days; day 5 post-incubation; vs DMSO
Procedure: The impact of Agelastatin A on the brain invasiveness of Raji B lymphoma cells was assessed ex vivo using a modified murine brain slice invasion assay. Briefly, these cells were first pre-transfected with luciferase (SP-DiI; Molecular Probes) just prior to invasion assays. Slice cultures of whole brains were produced from C57 mice. Two-month-old male C57BL/6J mice were sacrificed by CO2 inhalation. Mice brains were removed, placed into sterile ice-cold PBS, and then coronally sectioned with a 1 mm coronal brain matrix into 1 mm slices at +2.00 to −1.00 bregma. Brain slices were placed aseptically onto transwell (8 μm pore size) membranes in six-well dishes. Culture media (DMEM, 10% FCS, […], 100 U/ml penicillin, 100 μg/ml streptomycin, and 2.5 μg/ml amphotericin B) was added into each well to a point just below that which would cover the brain slice. […] Cells were allowed to attach to the brain surface for one hour before the media was adjusted to just cover the surface of the slice. After 5 days incubation, the extent of lymphoma cell invasion into the brain slice was quantitated by bioluminesence imaging (BLI) in both slice and media. Brain slices were fixed in 4% paraformaldehyde for CD20 staining to identify Raji cells, which had invaded the brain slices. […]

**Q.** How did the “brain invasiveness of Raji lymphoma cells (ex vivo brain slice)” value turn out when `CN1C(=O)N[C@H]2[C@@H]3NC(=O)c4ccc(Br)n4[C@@H]3C[C@]21O` [AA, agelastatin A, reference compound] was run?
**A.** significantly decreased and disabled the brain invasiveness; also recorded: decreases the brain invasiveness of Raji lymphoma cells; also recorded: No AA-treated lymphoma cells were found in the brain slice
